# ChEMBL document CHEMBL3525898, “Pharmacogenomics of gemcitabine metabolism: functional analysis of genetic variants in cytidine deaminase and deoxycytidine kinase” (Drug Metab Dispos, 2013)
# Columns and labels:
# Format in all cases: ADME
# [1] = Activity of human recombinant N-terminal His-tagged DCK Ile24Val mutant expressed in Escherichia coli BL21(DE3) cells assessed as cytosine-beta-D-arabinofuranoside-5'-MP formation incubated for 3 mins by liquid chromatography-tandem mass spectrometry; details: 0.05 h
# [2] = Activity of human recombinant N-terminal His-tagged DCK Ala119Gly mutant expressed in Escherichia coli BL21(DE3) cells assessed as cytosine-beta-D-arabinofuranoside-5'-MP formation incubated for 3 mins by liquid chromatography-tandem mass spectrometry; details: 0.05 h
# [3] = Activity of human recombinant N-terminal His-tagged DCK Pro122Ser mutant expressed in Escherichia coli BL21(DE3) cells assessed as cytosine-beta-D-arabinofuranoside-5'-MP formation incubated for 3 mins by liquid chromatography-tandem mass spectrometry; details: 0.05 h
# [4] = Drug metabolism assessed as […] incubated for 1 min in presence of human recombinant N-terminal His-tagged DCK Pro122Ser mutant expressed in Escherichia coli BL21(DE3) cells by liquid chromatography-tandem mass spectrometry
# [5] = Ratio of intrinsic clearance for human recombinant N-terminal His-tagged DCK Ile24Val mutant expressed in Escherichia coli BL21(DE3) cells to intrisic clerance for human recombinant N-terminal His-tagged wild type DCK expressed in Escherichia coli BL21(DE3) cells
# [6] = Drug metabolism assessed as […] incubated for 1 min in presence of human recombinant N-terminal His-tagged DCK Ala119Gly mutant expressed in Escherichia coli BL21(DE3) cells by liquid chromatography-tandem mass spectrometry
# [7] = Drug metabolism assessed as […] incubated for 1 min in presence of human recombinant N-terminal His-tagged DCK Ile24Val mutant expressed in Escherichia coli BL21(DE3) cells by liquid chromatography-tandem mass spectrometry
Compound,Km [1],Vmax [1],Km [2],Vmax [2],Km [3],Vmax [3],Km [4],Vmax [4],Ratio [5],Km [6],Vmax [6],Km [7],Vmax [7]
Nc1ccn([C@@H]2O[C@H](CO)[C@@H](O)[C@@H]2O)c(=O)n1 [CYTARABINE],2450 nM,599.4 nmol/min/mg,2540 nM,580.3 nmol/min/mg,1560 nM,264 nmol/min/mg,,,,,,,
Nc1ccn([C@@H]2O[C@H](CO)[C@@H](O)C2(F)F)c(=O)n1 [GEMCITABINE],,,,,,,1430 nM,573.2 nmol/min/mg,2,1750 nM,828.1 nmol/min/mg,1520 nM,1234 nmol/min/mg
